Results from paper PMC10726920 (Cancer Medicine, 2023).

Columns and labels:
[1] = system: phospho-4EBP1 (direct mTORC1 substrate) in ALL sample; assay: Immunoblotting of pretreatment ALL specimen treated ex vivo 48 h with sapanisertib; format: cell-based, human; conditions: 5 μM Q‐VD‐OPh
Excerpt: FIGURE 2 Effect of MLN0128 concentrations on mTOR‐associated phosphorylation in vitro, ex vivo, and in the context of the present trial. […] (C) Samples harvested from the indicated patients prior to treatment (lanes 1, 4, 6, 8, and 10), on Day 8 prior to therapy (lanes 2, 5, 7, 9, and 11), or at the time of removal from study after 6 weeks (lane 3) were subjected to SDS‐PAGE and blotting for the indicated antigens. Jurkat cells (lane 12) were included in the blot because they were known to be positive for all analytes.[29] The housekeeping protein nucleolin (NCL) served as a loading control.
Cells were isolated from bone marrow or blood samples using Histopaque-1077 (Millipore-Sigma, St. Louis, MO) step gradients. […] Cells for ex vivo drug exposure were resuspended at a concentration of 1 x 10^6 cells/ml in RPMI 1640 medium containing 10% (v/v) heat-inactivated fetal bovine serum, 50 U/ml penicillin G, 50 µg/ml streptomycin, and 1 mM glutamine. […]

[2] = system: patients with advanced solid malignancies; conditions: original drug formulation, daily dosing; cited from earlier work

SMILES: CC(C)n1nc(-c2ccc3oc(N)nc3c2)c2c(N)ncnc21 [sapanisertib]
- concentration diminishing phosphorylation of 4EBP1 without change in total 4EBP1 [1]: 62.5 to 200 nM
- maximum tolerated dose (MTD) [2]: 6 mg/day
